Measurements reported in US20110086891A1, “Solid Forms of 2-(2,4-Difluorophenyl)-6-(1-(2,6-Difluorophenyl)Ureido)Nicotinamide)” (Vertex Pharmaceuticals Incorporated, priority 2009, published 2011).
In brackets after ≈: the same amount, converted by molar mass. Entries after “also recorded” stand apart in the source; their conditions may differ.

Experiments:
Format in all cases: physicochemical
[1] = Apparent solubilities of Form A at room temperature and at 60° C.; conditions: thermodynamic from solid
[2] = Solid form conversion on heating, cooling, storage, slurrying or addition of water (XRPD, VT-XRD); conditions: for form conversion upon slurrying in a non-solvate forming solvent: slurry, MeOH and water (MeOH:H2O 1:1)
Protocol: Another form, Form P, was detected during the MeOH re-crystallization step used to prepare Form C from Form A. Form P is characterized below. When variable-temperature X-Ray diffraction (VT-XRD) of Form P was carried out in 5° C. increments from 25 to 50° C. and the resulting solid was cooled back to ambient conditions, it was observed that Form P transitions to Form A at approximately 40° C. and returns to Form P upon cooling back to room temperature. […] Both Form A and Form P are MeOH solvates.
1. Bruker D8 Discover with HighStar array detector with an accelerator voltage of 40 kV and current of 35 mA over a 120 second acquisition time. Each sample was prepared in a nickel sample holder and the subsequent pattern collected over two frames with a 2θ range of 4-41°. Variable temperature X-Ray diffraction (VT-XRD) was accomplished with a DHS900 Anton Paar heating stage with a TCU150 controller with a heating rate between steps of 10° C./min and an equilibration time of 5 minutes at temperature. 2. Siemens D5000 diffractometer using CuKα radiation (40 kV, 40 mA), θ-θ goniometer, automatic divergence and receiving slits, a graphite secondary monochromator and a scintillation counter. The data were collected over an angular 2 theta range of 2° to 42° in continuous scan mode using a step size of 0.02° and a step time of 1 second. Samples were run under ambient conditions and prepared as flat plate specimens using powder as received without grinding. Approximately 1-2 mg of the sample was slightly pressed on a glass slide to obtain a flat surface. Samples run under non-ambient conditions were mounted on a silicon wafer with heat conducting compounds. The sample was then heated to the appropriate temperature at ca. 20° C./min and subsequently held isothermally for ca 1 minute before data collection was initiated. 3. Bruker AXS C2 GADDS Diffractometer using CuKα radiation (40 kV, 40 mA), automated XYZ stage, laser video microscope for auto-sample positioning and a HiStar 2-dimensional area detector. X-Ray optics consists of a single Gobel multilayer mirror coupled with a pinhole collimator of 0.3 mm. Beam divergence, was approximately 4 mm. A θ-θ continuos scan mode was employed with a sample to detector distance of 20 cm which gives an effective 2θ range of 3.2-29.8°. A typical exposure time of a sample in this system would be 120 s. Samples were run under ambient conditions and prepared as flat plate specimens using powder as received without grinding. Approximately 25-50 mg of the sample was gently packed into 12 mm diameter, 0.5 mm deep cavities cut into polished, zero-background (510) silicon wafers (from The Gem Dugout). All specimens were run both stationary and rotated on their own plate during analysis. A further specimen was run using silicon powder as internal standard to correct for any peak displacement. Diffraction data were reported using Cu Kαl (l=1.5406 Å), after the Kαl component had been stripped using EVA, the powder patterns were indexed by the ITO method using WIN-INDEX and the raw lattice constants refined using WIN-METRIC. 4. Shimadzu XRD-6000 X-Ray powder diffractometer using CuKα radiation (40 kV, 40 mA) equipped with a fine-focus X-Ray tube. Divergence and Scattering slids were set at 1° and the receiving slit was set at 0.15 mm. A NaI scintillation detector detected diffracted irradiation. A θ-2θ continuous scan at 3°/min (0.4 sec/0.02° step) from 2.5° to 40° was used. A silicon standard was analyzed each day to check the instrument alignment. Each sample was prepared for analysis by pressing it onto the sample holder. 5. Inel XRG-3000 X-Ray powder diffractometer using CuKα radiation (40 kV, 30 mA). This was equipped with a curved position-sensitive detector. Data was collected in real time over a 2 θ range of 120° at a resolution of 0.03°. Samples were packed in an aluminum holder with a silicon insert and analyzed. A silicon standard was analyzed each day to check for instrument alignment. […]

[3] = Stability studies at 40° C./75% RH (physical and chemical stability, XRPD)
Description: In some embodiments, less than 25% of the solid form of Compound I decomposes, in some embodiments, less than about 20%, less than about 15%, less than about 10%, less than about 5%, less than about 3%, less than about 1%, less than about 0.5% of the form of Compound I decomposes under the conditions specified. In some embodiments, no detectable amount of the solid form of Compound I decomposes. […] In some embodiments, less than 25% of the solid form of Compound I changes into one or more different physical forms when subjected to specified conditions. In some embodiments, less than about 20%, less than about 15%, less than about 10%, less than about 5%, less than about 3%, less than about 1%, less than about 0.5% of the solid form of Compound I changes into one or more different physical forms of Compound I when subjected to specified conditions. In some embodiments, no detectable amount of the solid form of Compound I changes into one or more physically different solid forms of Compound I.

[4] = Relative stability studies: slurrying 1:1 mixtures of forms in 3:1 water:ethanol at various temperatures; conditions: slurry in 3:1 water:ethanol
Protocol: 1:1 mixtures of Form C and form G of Compound I were slurried in 3:1 water:ethanol at a range of temperatures to determine the relative stability at different temperatures. 5 mg of Form C was mixed with 5 mg of Form G in a glass vial. 1.0 ml of 3:1 water:ethanol was added and the resulting slurry was stirred at 5° C. for 10 days. The resulting solid was isolated by filtration and analysed by XRPD (see FIG. 17).
(§1) The above procedure was repeated at 25, 50 and 80° C.
1:1 mixtures of Form C and Form F were slurried in 3:1 water:ethanol at a range of temperatures to determine the relative stability at different temperatures. […] Ethanol was used in addition to water in order to increase the amount of Compound I in solution and so increase the rate of conversion between forms. Ethanol was chosen as no ethanol solvate of Compound I was known. 10 mg of Form C was mixed with 10 mg of Form F in a glass vial. 2.0 ml of 3:1 water:ethanol was added and the resulting slurry was stirred at 5° C. for 24 hours. Solid was isolated by filtration and analysed by XRPD.
as §1
1:1 mixtures of Form F and Form G were slurried in 3:1 water:ethanol at a range of temperatures to determine the relative stability at different temperatures. 10 mg of Form F was mixed with 10 mg of Form G in a glass vial. 2.0 ml of 3:1 water:ethanol was added and the resulting slurry was stirred at 5° C. for 24 hours. The resulting solid was isolated by filtration and analysed by XRPD. The above procedure was repeated at 25, 50 and 70° C. 70° C. was used instead of 80° C. in an attempt to reduce degradation.

[5] = Gravimetric vapour sorption (GVS) studies
Protocol: All samples were run on a Hiden IGASorp moisture sorption analyzer running CFRSorp software. Sample sizes were typically 10 mg. A moisture absorption-desorption isotherm was performed as outlined below in Table X (2 scans giving 1 complete cycle). All samples were loaded/unloaded at typical room humidity and temperature (40% RH, 25° C.). All samples were analysed by XRPD post GVS analysis. The standard isotherm was performed at 25° C. at 10% RH intervals over a 0-90% RH range.

[6] = Solubility analysis (in water); conditions: 25° C.
Protocol: This was measured by suspending enough Compound I in 0.25 mL of solvent (water) to give a maximum final concentration of ≧10 mg/ml of the parent free form of the compound. The suspension was equilibrated at 25° C. for 24 hrs followed by a pH check and filtration through a glass fibre C96 well plate. The filtrate was then diluted down by a factor of 101. Quantitation was by HPLC (Table XI) with reference to a standard, diluted and undiluted tests were injected. The solubility was calculated by integration of the peak area found at the same retention time as the peak maximum in the standard injection. If there is sufficient solid in the filter plate the XRPD is normally checked for phase changes, hydrate formation, amorphization, crystallization, etc.

In the case of `NC(=O)c1ccc(N(C(N)=O)c2c(F)cccc2F)nc1-c1ccc(F)cc1F` [Form A, 2-(2,4-difluorophenyl)-6-(1-(2,6-difluorophenyl)ureido)nicotinamide•MeOH], the solubility ([1]; organic solvent or mixture, 60° C., 1-Butanol) is reported as 2900 µg/mL (≈ 7.17 mM), the solubility ([1]; organic solvent or mixture, 60° C., Butyl Acetate) is reported as 1900 µg/mL (≈ 4.7 mM) and the solubility ([1]; organic solvent or mixture, room temperature, 1-Butanol) is reported as 2000 µg/mL (≈ 4.95 mM). The solubility ([1]; organic solvent or mixture, room temperature, 2-Butanone) was 3400 µg/mL (≈ 8.41 mM), the solubility ([1]; organic solvent or mixture, room temperature, 2-Propanol) was less than 800 µg/mL and the solubility ([1]; organic solvent or mixture, room temperature, 2-Propyl Acetate) was 2900 µg/mL (≈ 7.17 mM). It also gave a solubility ([1]; organic solvent or mixture, room temperature, Acetone) of 6400 µg/mL (≈ 15.8 mM), a solubility ([1]; organic solvent or mixture, room temperature, Acetonitrile) of 3800 µg/mL (≈ 9.4 mM) and a solubility ([1]; organic solvent or mixture, room temperature, Dimethylformamide) greater than 100000 µg/mL. It also gave a solubility ([1]; organic solvent or mixture, room temperature, Ethanol) of 5700 µg/mL (≈ 14.1 mM), a solubility ([1]; organic solvent or mixture, room temperature, Ethyl Acetate) of 7200 µg/mL (≈ 17.8 mM) and a solubility ([1]; organic solvent or mixture, room temperature, Heptane) of less than 900 µg/mL. It also gave a solubility ([1]; organic solvent or mixture, room temperature, Methanol) of 5700 µg/mL (≈ 14.1 mM), a solubility ([1]; organic solvent or mixture, room temperature, Methylene Chloride) of less than 800 µg/mL and a solubility ([1]; organic solvent or mixture, room temperature, Tetrahydrofuran) of 1500 µg/mL (≈ 3.71 mM). For the same compound, the solubility ([1]; room temperature, Water) was less than 900 µg/mL, the “form conversion on cooling” value ([2]; cooling) was “convert to Form P upon cooling below about 50 °C” and the “form conversion on heating” value [2] was “become crystalline Form C upon heating to 100 °C”. For the same compound, the “form conversion upon slurrying in a non-solvate forming solvent” value [2] was “become crystalline Form C”, the “results of stability studies as seen by XRPD (before and after spectra)” value (from here on “results of stability studies as seen”) [3] was “before and after spectra illustrate formation of Form C” and the “form conversion upon storage” value ([3]; 40° C./75% RH) was “become Form C described herein after one to four weeks; also recorded: convert to Form C upon storage at 40° C./75% RH for one week or longer”.

For `NC(=O)c1ccc(N(C(N)=O)c2c(F)cccc2F)nc1-c1ccc(F)cc1F` [Form F, 2-(2,4-difluorophenyl)-6-(1-(2,6-difluorophenyl)ureido)nicotinamide], the “time remaining chemically stable” value ([3]; 40° C./75% RH) was “at least 2 weeks”, the “time remaining in substantially the same physical form” value ([3]; 40° C./75% RH) was “at least 2 weeks” and the “fate of the form on slurrying” value [4] was “At 5 and 25° C., Form F was observed to convert to Form G; also recorded: not recovered after slurrying at any of the four temperatures”. The “total weight gain in water at 40% RH” value ([5]; 40% RH) was 1%, the “weight gain in water at 90% RH” value [5] was 1.1% and the solubility in water [6] was “at least 0.021 mg/mL”.

With `NC(=O)c1ccc(N(C(N)=O)c2c(F)cccc2F)nc1-c1ccc(F)cc1F` [Form G, 2-(2,4-difluorophenyl)-6-(1-(2,6-difluorophenyl)ureido)nicotinamide] the “form conversion after the addition of water” value ([2]; 20° C. to 50° C., 2, 5 and 24 hours after addition of water) was “convert into Form Q”, the “form conversion on heating” value [2] was “converted into Form F on heating above about 130 °C” and the “results of stability studies as seen” value [3] was “before and after spectra are similar”. The “time remaining chemically stable” value ([3]; 40° C./75% RH) was “at least two”, the “time remaining in substantially the same physical form” value ([3]; 40° C./75% RH) was “at least two” and the “relative stability between forms” value [4] was “more stable than Form F at 5 °C”. The hygroscopicity [5] was “highly hygroscopic”, the “total water gain (in weight) at 10% RH” value ([5]; 10% RH) was 1% and the “weight gain in water at 90% RH” value [5] was “more than 8%”. For the same compound, the solubility in water [6] was “at least 0.020 mg/mL”.

With `NC(=O)c1ccc(N(C(N)=O)c2c(F)cccc2F)nc1-c1ccc(F)cc1F` [Form P, 2-(2,4-difluorophenyl)-6-(1-(2,6-difluorophenyl)ureido)nicotinamide•MeOH] the “temperature of transition of Form P to Form A” value ([2]; VT-XRD, 5° C. increments from 25 to 50° C.) was “approximately 40 °C”, the “form conversion on heating” value [2] was “convert to Form A upon heating to 50 °C and then to Form C upon heating to 100 °C” and the “relative stability of Form A and Form P” value ([2]; room temperature, VT-XRD) was “the more stable of the two at room temperature”. The “form conversion upon slurrying in a non-solvate forming solvent” value [2] was “convert to Form C” and the “results of stability studies as seen” value [3] was “before and after spectra illustrate formation of Form C”.
